According to US6861431B2, “Compounds capable of modulating the activity of multidrug transporters and therapeutic use of the same” (The Board of Trustees of the University of Illinois, priority 2001, dated 2005):
Where two headings read alike, the source gives them in different places. Starred links: 1 amine or outer side, 2 acyl side, 3 side chain; linkers in the order of their positions; H or OH if unused. Positions of bridges follow the written chain, without caps; N, C: chain ends. Non-standard residues stand in square brackets, D forms with d. Residues, ends and D or L forms follow the SMILES beside them. Chains are numbered I, II in the order given. Actinocin(9to1) = Cc1c2oc3c(C)ccc(C(=O)[*:1])c3nc-2c(C(=O)[*:2])c(N)c1=O; NMeV = CN[C@H](C(=O)O)C(C)C; Sar = CNCC(=O)O

What was measured:
[1] = system: ConA cells; assay: Drug sensitivity (growth inhibition) assay, ConA cells; assay type: cell-based, mouse; settings: for Change in sensitivity (x-fold): Compound 102 (10 μM), fold resistance; for Effect of Compound 102 on drug sensitivity of cell lines: ConA (Balb 3T3): P-gp-positive ConA cells, label = drug
Method: Drug sensitivity assays. To estimate drug-mediated growth inhibition, 10^3 cells were plated per well of 96-well plates, and incubated with a range of concentrations of drugs added 24 hours after plating. […] After elution by 1% SDS solution, optical density was determined on a Multiscan Ascent reader (Lybsystems, Helsinki, Finland) at 650 nm.

[2] = system: P-gp
Method: Drug sensitivity assays. To estimate drug-mediated growth inhibition, 10^3 cells were plated per well of 96-well plates, and incubated with a range of concentrations of drugs added 24 hours after plating. After 5 to […] of drug treatment, plates were fixed and stained using 2% methylene blue solution in 50% methanol. After elution by 1% SDS solution, optical density was determined on a Multiscan Ascent reader (Lybsystems, Helsinki, Finland) at 650 nm.
(§1) Drug accumulation and efflux assay. […] For drug efflux assay, cells after drug incubation were washed thoroughly with PBS, incubated in a drug-free media with or without compounds from the chemical library, and harvested at different time points for flow cytometric analysis (18).

[3] = system: P-gp; assay: Rho123 accumulation in ConA cells; assay type: cell-based, mouse; set-up: effect on Rho123 efflux/accumulation: dose or concentration left out as unconfirmed; settings: two hours with Rho123, flow cytometry (FIG. 8)
Method: Screening of a chemical library. Murine fibroblastoid cell line (ConA) was selected as the readout system for screening a chemical library for P-gp activators. […] Rho123, a classic fluorescent P-gp substrate that is detected easily using multichannel fluorimeter in living cells, was used as an efflux indicator. […] Primary screening was performed on ConA cells for compounds that interfere with Adr-induced activation of p53-responsive reporter LacZ gene as previously described (11). To identify P-gp modulators, all “hits” isolated after primary screening were tested for their ability to modulate cellular accumulation of Rho123. Con A cells grown in 96-well plates were incubated 4 hours with 0.5 μM Rho123 in combination with individual library compounds (2 μg/ml (2-5 μM)), and cell fluorescence was analyzed using fluorescent microscopy.
as §1
(§2) ConA cells were incubated two hours with Rho123 ([…]) or daunorubicin (500 ng/ml) in the presence of the identified compounds, and accumulation of the drugs was quantitated by flow cytometry.

[4] = system: P-gp; assay: Daunorubicin accumulation in ConA cells; assay type: cell-based, mouse; settings: for effect on daunorubicin accumulation: ConA cells, two hours with daunorubicin (500 ng/ml), flow cytometry (FIG. 8)
Method: Drug accumulation and efflux assay. […] For drug efflux assay, cells after drug incubation were washed thoroughly with PBS, incubated in a drug-free media with or without compounds from the chemical library, and harvested at different time points for flow cytometric analysis (18). […]
as §2

[5] = system: mouse ConA cells; assay: DMBA sensitivity of mouse cells; assay type: cell-based
Method: The effect of the identified compounds on DMBA sensitivity of mouse cells also was tested. It has been reported that ABC type transporters (e.g., P-gp) are involved in the efflux of polycyclic aromatic hydrocarbon carcinogens from cells. The effect of the identified compounds on sensitivity of mouse cells to 7,12-dimethylbenz[a]anthracene (DMBA) was determined. […].

[6] = label = P-gp substrate drug, three groups

Row | Compound | cytotoxicity of the drug in the presence of Compound 102 [2] | Effect of Compound 102 on drug sensitivity of cell lines: ConA (Balb 3T3) [1] | effect on Rho123 efflux/accumulation [3] | effect on daunorubicin accumulation [4] | also measured
1 | Cc1c2oc3c(C)ccc(C(=O)N[C@@H]4C(=O)N[C@H](C(C)C)C(=O)N5CCC[C@H]5C(=O)N(C)CC(=O)N(C)[C@@H](C(C)C)C(=O)O[C@@H]4C)c3nc-2c(C(=O)N[C@@H]2C(=O)N[C@H](C(C)C)C(=O)N3CCC[C@H]3C(=O)N(C)CC(=O)N(C)[C@@H](C(C)C)C(=O)O[C@@H]2C)c(N)c1=O [Actinomycin D, actinomycin D] (I: T[dV]P[Sar][NMeV] / II: T[dV]P[Sar][NMeV]; ester I:1-I:C, II:1-II:C; linker I:N-II:N via Actinocin(9to1)) | do not change their cytotoxicity | – | – | – | Change in sensitivity (x-fold) ([1]; ConA cells): 1 x-fold; LD50 ([1]; ConA cells, drug alone): 20 ng/mL; LD50 comp ([1]; ConA cells, drug in the presence of Compound 102 (10 μM)): 20 ng/mL
2 | CN[C@H]1CCc2cc(OC)c(OC)c(OC)c2-c2ccc(OC)c(=O)cc21 [Colcemide, colcemid] | – | – | – | – | cytotoxicity of the drug in the presence of Compound 102 [2, 6]: do not change their cytotoxicity
3 | COc1cc2c(c(OC)c1OC)-c1ccc(OC)c(=O)cc1[C@@H](NC(C)=O)CC2 [Colchicine, colchicine] | – | S | – | – | –
4 | Cc1cc(C)n(CC(O)Cn2c3ccccc3c3ccccc32)n1 (centres unmarked) [Compound 2, 1-Carbazol-9-yl-3-(3,5-dimethyl-pyrazol-1-yl)-propan-2-ol] | – | – | relatively effective | weak influence | –
5 | Cc1cc(OCC(=O)Nc2ccc3nn(-c4ccccc4)nc3c2)cc(C)c1Cl [Compound 7, 2-(4-Chloro-3,5-dimethyl-phenoxy)-N-(2-phenyl-2H-benzotriazol-5-yl)-acetamide] | – | – | relatively effective | weak influence | –
6 | Cc1ccc2c(C)nc(N/C(N)=N/C(=O)Cc3ccc(Cl)cc3)nc2c1 [Compound 8, N-[2-(4-Chloro-phenyl)-acetyl]-N′-(4,7-dimethyl-quinazolin-2-yl)-guanidine] | – | – | relatively effective | weak influence | –
7 | COc1cc2cnc3c(c(Cc4ccccc4)nn3-c3ccccc3)c2cc1OC [Compound 9, 1-Benzyl-7,8-dimethoxy-3-phenyl-3H-pyrazolo[3,4-c]isoquinoline] | – | – | relatively effective | weak influence | –
8 | Cc1ccc(OCC(=O)Nc2ccc(O)c(-c3nc4ccccc4o3)c2)cc1 [Compound 10, N-(3-Benzooxazol-2-yl-4-hydroxy-phenyl)-2-p-tolyloxy-acetamide] | – | – | relatively effective | weak influence | –
9 | C=CCn1c2ccccc2n2cc(-c3ccccc3)nc12 [Compound 11, 8-Allyl-2-phenyl-8H-1,3a,8-triaza-cyclopenta[a]indene] | – | – | strong effect | two to four times less pronounced effect | protection of cells from cytotoxicity of DMBA [5]: strong protective effect
10 | COc1ccccc1-c1nc(Cc2ccc(Cl)cc2)no1 [Compound 12, 3-(4-Chloro-benzyl)-5-(2-methoxy-phenyl)-[1,2,4]oxadiazole] | – | – | – | – | stimulation of P-gp-mediated efflux of daunorubicin relative to Rho123 ([4]; ConA cells (FIG. 8)): more effective
11 | Nc1nc(SCCc2ccccc2)nc2sc3c(c12)CCCC3 [Compound 13, 2-Phenethylsulfanyl-5,6,7,8-tetrahydro-benzo[4,5]thieno[2,3-d]pyrimidin-4-ylamine] | – | – | strong effect | two to four times less pronounced effect | protection of cells from cytotoxicity of DMBA [5]: strong protective effect
12 | CCOC(=O)Cn1c2ccccc2c2nc3cc4ccccc4cc3nc21 [Compound 14, (5,12,13-Triaza-indeno[1,2-b]anthracen-13-yl)-acetic acid ethyl ester] | – | – | – | no effect | –
13 | Oc1ccccc1-c1nc(-c2ccccc2O)n(-c2ccccc2)n1 [Compound 15, 2,2′-(1-phenyl-1H-1,2,4-triazole-3,5-diyl)bis-phenol] | – | – | relatively effective | weak influence | –
14 | Cc1ccc(-c2nnc(-c3ccccc3Cl)o2)s1 [Compound 16, 2-(2-Chloro-phenyl)-5-(5-methyl-thiophen-2-yl)-[1,3,4]oxadiazole] | – | – | relatively effective | weak influence | protection of cells from cytotoxicity of DMBA [5]: strong protective effect
15 | COc1cccc2c1C(=O)c1c(O)c3c(c(O)c1C2=O)C[C@@](O)(C(C)=O)C[C@@H]3O[C@H]1C[C@H](N)[C@H](O)[C@H](C)O1 [Daunorubicin, daunorubicin] | less toxic | R | – | – | Change in sensitivity (x-fold) ([1]; ConA cells): 2.5 x-fold
16 | COc1cc([C@@H]2c3cc4c(cc3[C@@H](O[C@@H]3O[C@@H]5CO[C@@H](C)O[C@H]5[C@H](O)[C@H]3O)[C@H]3COC(=O)[C@H]23)OCO4)cc(OC)c1O [Etoposide, etoposide] | less toxic | Minor R | – | – | Change in sensitivity (x-fold) ([1]; ConA cells): 1.5 x-fold
17 | CCOc1ccc(-c2nc3ccc(-c4nc5ccc(N6CCN(C)CC6)cc5[nH]4)cc3[nH]2)cc1 [Hoechst 33342] | – | S? | – | – | cytotoxicity of the drug in the presence of Compound 102 [2, 6]: more potent
18 | COc1ccc(C[C@H](N)C(=O)N[C@H]2[C@@H](O)[C@H](n3cnc4c(N(C)C)ncnc43)O[C@@H]2CO)cc1 [Puromycin, puromycin] | do not change their cytotoxicity | – | – | – | Change in sensitivity (x-fold) ([1]; ConA cells): 1 x-fold
19 | CC(=O)O[C@H]1C(=O)[C@@]2(C)[C@H]([C@H](OC(=O)c3ccccc3)[C@]3(O)C[C@H](OC(=O)[C@H](O)[C@@H](NC(=O)c4ccccc4)c4ccccc4)C(C)=C1C3(C)C)[C@]1(OC(C)=O)CO[C@@H]1C[C@@H]2O [Taxol, taxol] | more potent | S | – | – | Change in sensitivity (x-fold) ([1]; ConA cells): 0.3 x-fold
20 | CC[C@]1(O)C[C@@H]2CN(CCc3c([nH]c4ccccc34)[C@@](C(=O)OC)(c3cc4c(cc3OC)N(C)[C@H]3[C@@](O)(C(=O)OC)[C@H](OC(C)=O)[C@]5(CC)C=CCN6CC[C@]43[C@@H]65)C2)C1 [Vinblastine, vinblastine] | more potent | S | – | – | Change in sensitivity (x-fold) ([1]; ConA cells): 0.5 x-fold
21 | CC[C@]1(O)C[C@H]2CN(CCc3c([nH]c4ccccc34)[C@@](C(=O)OC)(c3cc4c(cc3OC)N(C=O)[C@H]3[C@@](O)(C(=O)OC)[C@H](OC(C)=O)[C@]5(CC)C=CCN6CC[C@]43[C@@H]65)C2)C1 [Vincristine, vincristine] | more potent | S | – | – | Change in sensitivity (x-fold) ([1]; ConA cells): 0.5 x-fold
22 | C=C1[C@@H](C)[C@H]2[C@H](Cc3ccccc3)NC(=O)[C@]23[C@H](OC(C)=O)/C=C/[C@@](C)(O)C(=O)[C@@H](C)C/C=C/[C@H]3[C@@H]1O [cytochalasin D] | – | – | – | – | cytotoxicity of the drug in the presence of Compound 102 [2, 6]: do not change their cytotoxicity
23 | Rhodamine 123 | less toxic | R | – | – | –
24 | gramicidin D [Gramicidine D] | – | S | – | – | cytotoxicity of the drug in the presence of Compound 102 [2, 6]: more potent
